Among the data in patent publication US11332472B2, “Substituted piperidines as inhibitors of ubiquitin specific protease 7” (LES LABORATOIRES SERVIER, priority 2017, dated 2022) are IC50 values, retold here.

Broadly, the IC50 is the concentration at which inhibition is half-maximal.

One assay concerns the target T1, USP7 (Homo sapiens, UniProt Q93009, C315A).
T1 construct: 0.25 nM His-His-USP7 (aa208-560, [C315A]) was incubated with compound; His-His (N)
As to the kind of experiment: Inhibition of USP7 by Fluorescence Intensity (FLINT) readings, Ubiquitin-Rhodamine-110 substrate. Format: biochemical. The note with it: 0.25 nM His-His-USP7 (aa208-560, [C315A]); compound 60 minutes at 30° C.; 500 nM Ubiquitin-Rhodamine substrate; 11-point curves. An outline of the steps: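 His-His-USP7 (aa208-560, C315A) at 0.25 nM was preincubated with compound for 60 min at 30 °C in 100 mM Bicine pH 8.0, 0.01% Triton X-100, 1 mM TCEP, 10% DMSO. 500 nM ubiquitin-rhodamine-110 was then added, with fluorescence (Ex 485/Em 535 nm) read every 3 min for 21 min. IC50 came from kinetic-rate inhibition, 11-point curves, 4-parameter fit.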

For assay [1], the system named is MM 1S multiple myeloma tumour cell line. The experiment in a line: In vitro cytotoxicity, MTT assay, MM1S cells. As to conditions: Homo sapiens, MM1.S, 96 hours exposure. Format: cell-based. As to the method: The cytotoxicity studies were evaluated by MTT assay and carried out on MM 1S multiple myeloma or Z138 mantle cell lymphoma tumour cell lines. The cells are distributed onto microplates and exposed to the test compounds for 96 hours. The cell viability is then quantified by a colorimetric assay, the Microculture Tetrazolium Assay (Carmichael et. al., Cancer Res. […], 47, 936-942).
On the technique in general: Tetrazolium assays rely on reduction of a dye to a coloured formazan, in cell work by metabolically active cells.

T1 sequence (Q93009 208-560 C315A): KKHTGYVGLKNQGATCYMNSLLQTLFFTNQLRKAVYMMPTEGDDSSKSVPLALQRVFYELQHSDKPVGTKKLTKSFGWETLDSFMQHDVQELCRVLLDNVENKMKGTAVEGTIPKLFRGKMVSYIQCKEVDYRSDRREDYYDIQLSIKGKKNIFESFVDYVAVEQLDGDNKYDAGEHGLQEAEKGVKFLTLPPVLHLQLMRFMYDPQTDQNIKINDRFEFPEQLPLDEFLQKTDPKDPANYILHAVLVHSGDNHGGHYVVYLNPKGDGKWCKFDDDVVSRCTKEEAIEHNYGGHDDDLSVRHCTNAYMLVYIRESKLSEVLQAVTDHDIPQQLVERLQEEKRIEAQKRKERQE

For the compound `O=C([C@@H]1CCCC[C@H]1c1ccccc1)N1CCC(O)(Cn2cnc3c(ccn3-c3ccc(Cl)cc3)c2=O)CC1` (relative stereo) [Example 22, 7-(4-chlorophenyl)-3-[[4-hydroxy-1-(trans-2-phenylcyclohexanecarbonyl)-4-piperidyl]methyl]pyrrolo[2,3-d]pyrimidin-4-one], the IC50 against USP7 turned out to be 31.6 nM; in assay [1] it was 9.88 nM.

Regarding `COc1ccc(-n2ccc3c(=O)n(CC4(O)CCN(C(=O)[C@@H]5CC(F)(F)CC[C@H]5c5ccccc5)CC4)cnc32)cc1` (single isomer, unassigned) [Example 30, 3-[[1-[trans-5,5-difluoro-2-phenyl-cyclohexanecarbonyl]-4-hydroxy-4-piperidyl]methyl]-7-(4-methoxyphenyl)pyrrolo[2,3-d]pyrimidin-4-one], the IC50 against USP7 is 15.9 nM; in assay [1] it was 10.8 nM.

As to `O=C([C@@H]1CCCC[C@H]1c1ccccc1)N1CCC(O)(Cn2cnc3c(nnn3-c3ccccc3)c2=O)CC1` (relative stereo) [Example 18, 6-[[4-hydroxy-1-(trans-2-phenylcyclohexanecarbonyl)-4-piperidyl]methyl]-3-phenyl-triazolo[4,5-d]pyrimidin-7-one], the half-maximal inhibitory concentration (IC50) on USP7 is 50.6 nM; in assay [1], 636 nM.

Take `O=C([C@@H]1CCCC[C@H]1c1ccccc1)N1CCC(O)(Cn2cnc3c(ccn3-c3ccccc3)c2=O)CC1` (relative stereo) [Example 9, 3-[[4-hydroxy-1-(trans-2-phenylcyclohexanecarbonyl)-4-piperidyl]methyl]-7-phenyl-pyrrolo[2,3-d]pyrimidin-4-one]: the IC50 on USP7 was 35.9 nM; in assay [1], 13.9 nM.

For `CN1C(=O)CC[C@@H](C(=O)N2CCC(O)(Cn3cnc4c(ccn4-c4ccccc4)c3=O)CC2)[C@@H]1c1ccccc1` (single isomer, unassigned) [Example 27, 3-[[4-hydroxy-1-[trans-1-methyl-6-oxo-2-phenyl-piperidine-3-carbonyl]-4-piperidyl]methyl]-7-phenyl-pyrrolo[2,3-d]pyrimidin-4-one], the figures for the IC50 (against USP7; in assay [1]) were 31.5 nM and 46.5 nM, respectively.

As to `O=C(C1CC(F)CCC1c1ccccc1)N1CCC(O)(Cn2cnc3c(ccn3-c3ccccc3)c2=O)CC1` (stereo not drawn) [Example 37, 3-[[1-[5-fluoro-2-phenyl-cyclohexanecarbonyl]-4-hydroxy-4-piperidyl]methyl]-7-phenyl-pyrrolo[2,3-d]pyrimidin-4-one], the results for the IC50 (against USP7; in assay [1]) were 46.3 nM and 84.1 nM, respectively.

Regarding `COc1ccc(-n2ccc3c(=O)n(CC4(O)CCN(C(=O)[C@@H]5CCC(F)(F)C[C@H]5c5ccoc5)CC4)cnc32)cc1` (single isomer, unassigned) [Example 75, 3-[[1-[trans-4,4-difluoro-2-(3-furyl)cyclohexanecarbonyl]-4-hydroxy-4-piperidyl]methyl]-7-(4-methoxyphenyl)pyrrolo[2,3-d]pyrimidin-4-one], the half-maximal inhibitory concentration (IC50) on USP7 was found to be 59.1 nM; in assay [1], 3.29 nM.

Consider `COc1ccc(-n2ccc3c(=O)n(CC4(O)CCN(C(=O)[C@@H]5CCCC[C@H]5n5cccc5)CC4)cnc32)cc1` (single isomer, unassigned) [Example 17, 3-[[4-hydroxy-1-[trans-2-pyrrol-1-ylcyclohexanecarbonyl]-4-piperidyl]methyl]-7-(4-methoxyphenyl)pyrrolo[2,3-d]pyrimidin-4-one], for which the IC50 came out at 33.5 nM at USP7 and 4.21 nM in assay [1].

For `COc1ccc(-n2ccc3c(=O)n(CC4(O)CCN(C(=O)[C@@H]5CCCO[C@H]5c5ccccc5)CC4)cnc32)cc1` (relative stereo) [Example 24, 3-[[4-hydroxy-1-[trans-2-phenyltetrahydropyran-3-carbonyl]-4-piperidyl]methyl]-7-(4-methoxyphenyl)pyrrolo[2,3-d]pyrimidin-4-one], the IC50 against USP7 is 217 nM; in assay [1], 146 nM.

As for `COc1ccc(-n2ccc3c(=O)n(CC4(O)CCN(C(=O)[C@@H]5CCCC[C@H]5c5ccc(F)cc5)CC4)cnc32)cc1` (single isomer, unassigned) [Example 41, 3-[[1-[trans-2-(4-fluorophenyl)cyclohexanecarbonyl]-4-hydroxy-4-piperidyl]methyl]-7-(4-methoxyphenyl)pyrrolo[2,3-d]pyrimidin-4-one], the results for the IC50 (against USP7; in assay [1]) were 13 nM and 7.22 nM, respectively.

`O=C(C1CCCC(O)C1c1ccccc1)N1CCC(O)(Cn2cnc3c(ccn3-c3ccccc3)c2=O)CC1` (single isomer, unassigned) [Example 56, (1S,2S,3S or 1R,2R,3R)-3-[[4-hydroxy-1-[3-hydroxy-2-phenyl-cyclohexanecarbonyl]-4-piperidyl]methyl]-7-phenyl-pyrrolo[2,3-d]pyrimidin-4-one] showed an IC50 against USP7 of 2550 nM.

For the compound `CCn1cc([C@@H]2CC(F)(F)CC[C@H]2C(=O)N2CCC(O)(Cn3cnc4c(-c5ccccc5)scc4c3=O)CC2)cn1` (single isomer, unassigned) [Example 81, 3-[[1-[trans-2-(1-ethylpyrazol-4-yl)-4,4-difluoro-cyclohexanecarbonyl]-4-hydroxy-4-piperidyl]methyl]-7-phenyl-thieno[3,4-d]pyrimidin-4-one], on USP7, half-maximal inhibition (IC50) was put at 76300 nM.

With `O=C([C@@H]1CCCC(F)(F)[C@H]1c1ccccc1)N1CCC(O)(Cn2cnc3c(ccn3-c3ccccc3)c2=O)CC1` (relative stereo) [Example 51, 3-[[1-[trans-3,3-difluo-2-phenyl-cyclohexanecarbonyl]-4-hydroxy-4-piperidyl]methyl]-7-phenyl-pyrrolo[2,3-d]pyrimidin-4-one], it took 10100 nM to reach half-maximal inhibition on USP7 (IC50). Compared with the last compound, the IC50 is about 7.6-fold lower.

In the case of `O=C([C@@H]1CCCC[C@H]1c1ccccc1)N1CCC(O)(Cn2cnc3sccc3c2=O)CC1` (relative stereo) [Example 91, 3-[[4-hydroxy-1-(trans-2-phenylcyclohexanecarbonyl)-4-piperidyl]methyl]thieno[2,3-d]pyrimidin-4-one], the IC50 against USP7 was 137 nM.

Consider `O=C([C@@H]1CCCC[C@H]1c1ccccc1)N1CCC(O)(Cn2cnc3c(ccn3Cc3ccsc3)c2=O)CC1` (relative stereo) [Example 110, 3-[[4-hydroxy-1-(trans-2-phenylcyclohexanecarbonyl)-4-piperidyl]methyl]-7-(3-thienylmethyl)pyrrolo[2,3-d]pyrimidin-4-one], for which the IC50 at USP7 was determined as 450 nM. Compared with the last compound, the IC50 is about 3.3-fold higher.

Compound `Cn1ccc2c(=O)n(CC3(O)CCN(C(=O)[C@@H]4CCCC[C@H]4c4ccsc4)CC3)cnc21` (relative stereo) [Example 2, 3-[[4-hydroxy-1-[trans-2-(3-thienyl)cyclohexanecarbonyl]-4-piperidyl]methyl]-7-methyl-pyrrolo[2,3-d]pyrimidin-4-one] displayed an IC50 against USP7 of 439 nM.

Take `O=C([C@@H]1CCC(F)(F)C[C@H]1c1ccco1)N1CCC(O)(Cn2cnc3c(-c4ccccc4)scc3c2=O)CC1` (single isomer, unassigned) [Example 86, 3-[[1-[trans-4,4-difluoro-2-(2-furyl)cyclohexanecarbonyl]-4-hydroxy-4-piperidyl]methyl]-7-phenyl-thieno[3,4-d]pyrimidin-4-one]: the IC50 at USP7 was found to be 125 nM.

Regarding `Cn1ccnc1[C@@H]1CCCC[C@H]1C(=O)N1CCC(O)(Cn2cnc3c(ccn3-c3ccccc3)c2=O)CC1` (single isomer, unassigned) [Example 58, 3-[[4-hydroxy-1-[trans-2-(1-methylimidazol-2-yl)cyclohexanecarbonyl]-4-piperidyl]methyl]-7-phenyl-pyrrolo[2,3-d]pyrimidin-4-one], on USP7, the IC50 came out at 20300 nM. Against the preceding compound, the IC50 is about 160-fold higher.

Regarding `CN1C(=O)CC[C@@H](C(=O)N2CCC(O)(Cn3cnc4c(ccn4C)c3=O)CC2)[C@@H]1c1ccccc1` (single isomer, unassigned) [Example 38, 3-[[4-hydroxy-1-[trans-1-methyl-6-oxo-2-phenyl-piperidine-3-carbonyl]-4-piperidyl]methyl]-7-methyl-pyrrolo[2,3-d]pyrimidin-4-one], at USP7, the IC50 was 399 nM.

At USP7, `CC1(C)CC[C@@H](C(=O)N2CCC(O)(Cn3cnc4c(-c5ccccc5)scc4c3=O)CC2)[C@H](c2ccccc2)C1` (single isomer, unassigned) [Example 99, 3-[[1-(trans-4,4-dimethyl-2-phenyl-cyclohexanecarbonyl)-4-hydroxy-4-piperidyl]methyl]-7-phenyl-thieno[3,4-d]pyrimidin-4-one] yielded an IC50 of 268 nM.

Consider `COc1ccc(-n2ccc3c(=O)n(CC4(O)CCN(C(=O)[C@@H]5CCC(=O)N(C)[C@H]5c5ccccc5)CC4)cnc32)cc1` (single isomer, unassigned) [Example 118, 3-{[4-hydroxy-1-(trans-1-methyl-6-oxo-2-phenylpiperidine-3-carbonyl)piperidin-4-yl]methyl}-7-(4-methoxyphenyl)-3,7-dihydro-4H-pyrrolo[2,3-d]pyrimidin-4-one], for which half-maximal inhibition at USP7 (IC50) was put at 4640 nM.

At USP7, `O=C(C1CCCC(O)C1c1ccccc1)N1CCC(O)(Cn2cnc3c(ccn3-c3ccccc3)c2=O)CC1` (single isomer, unassigned) [Example 55, (1S,2S,3R or 1R,2R,3S)-3-[[4-hydroxy-1-[3-hydroxy-2-phenyl-cyclohexanecarbonyl]-4-piperidyl]methyl]-7-phenyl-pyrrolo[2,3-d]pyrimidin-4-one] displayed a half-inhibitory concentration (IC50) of 113 nM.

`O=C([C@@H]1CCC(F)(F)C[C@H]1c1cccs1)N1CCC(O)(Cn2cnc3c(ccn3-c3ccccc3)c2=O)CC1` (relative stereo) [Example 71, 3-[[1-[trans-4,4-difluoro-2-(2-thienyl)cyclohexanecarbonyl]-4-hydroxy-4-piperidyl]methyl]-7-phenyl-pyrrolo[2,3-d]pyrimidin-4-one]: it took 162 nM to reach half-maximal inhibition on USP7 (IC50).
